Results published in the NIST ThermoML archive (doi:10.1021/je4004806).
± gives the expanded uncertainty stated by the source.

Assay: xn = mol fraction of the nth substance listed
Conditions: 101 kPa, Liquid; for viscosity: Capillary tube (Ostwald / Ubbelohde) method; for mass density: Vibrating tube method

CCCCCCCC [octane] + CCCCO
Conditions	mass density [kg/m3]	viscosity [mPa·s]
293.15 K, x1 = 0.0967	792 ± 0.68	2.243 ± 0.029
293.15 K, x1 = 0.1999	775.92 ± 0.6	1.722 ± 0.021
293.15 K, x1 = 0.3022	761.86 ± 0.53	1.363 ± 0.017
293.15 K, x1 = 0.4064	749.45 ± 0.47	1.078 ± 0.014
293.15 K, x1 = 0.4995	739.67 ± 0.42	0.903 ± 0.012
293.15 K, x1 = 0.6004	730.23 ± 0.38	0.766 ± 0.01
293.15 K, x1 = 0.7002	721.95 ± 0.35	0.672 ± 0.01
293.15 K, x1 = 0.7999	714.61 ± 0.32	0.603 ± 0.009
293.15 K, x1 = 0.8991	708.11 ± 0.28	0.571 ± 0.009
293.15 K, x1 = 1	702.54 ± 0.15	0.545 ± 0.009
298.15 K, x1 = 0.0967	788.1 ± 0.69	1.983 ± 0.025
298.15 K, x1 = 0.1999	771.93 ± 0.6	1.537 ± 0.019
298.15 K, x1 = 0.3022	757.83 ± 0.53	1.223 ± 0.015
298.15 K, x1 = 0.4064	745.37 ± 0.47	0.974 ± 0.013
298.15 K, x1 = 0.4995	735.56 ± 0.42	0.826 ± 0.011
298.15 K, x1 = 0.6004	726.12 ± 0.38	0.709 ± 0.01
298.15 K, x1 = 0.7002	717.8 ± 0.35	0.626 ± 0.009
298.15 K, x1 = 0.7999	710.5 ± 0.32	0.565 ± 0.009
298.15 K, x1 = 0.8991	704 ± 0.28	0.537 ± 0.009
298.15 K, x1 = 1	698.49 ± 0.15	0.513 ± 0.009
303.15 K, x1 = 0.0967	784.17 ± 0.69	1.762 ± 0.022
303.15 K, x1 = 0.1999	767.92 ± 0.61	1.375 ± 0.017
303.15 K, x1 = 0.3022	753.77 ± 0.53	1.102 ± 0.014
303.15 K, x1 = 0.4064	741.27 ± 0.47	0.885 ± 0.012
303.15 K, x1 = 0.4995	731.43 ± 0.42	0.758 ± 0.01
303.15 K, x1 = 0.6004	721.97 ± 0.38	0.655 ± 0.01
303.15 K, x1 = 0.7002	713.65 ± 0.35	0.584 ± 0.009
303.15 K, x1 = 0.7999	706.35 ± 0.32	0.529 ± 0.009
303.15 K, x1 = 0.8991	699.87 ± 0.28	0.503 ± 0.009
303.15 K, x1 = 1	694.44 ± 0.16	0.485 ± 0.009
308.15 K, x1 = 0.0967	780.22 ± 0.69	1.577 ± 0.02
308.15 K, x1 = 0.1999	763.9 ± 0.61	1.232 ± 0.015
308.15 K, x1 = 0.3022	749.68 ± 0.54	0.996 ± 0.013
308.15 K, x1 = 0.4064	737.13 ± 0.48	0.809 ± 0.011
308.15 K, x1 = 0.4995	727.27 ± 0.42	0.698 ± 0.01
308.15 K, x1 = 0.6004	717.79 ± 0.38	0.609 ± 0.009
308.15 K, x1 = 0.7002	709.47 ± 0.35	0.546 ± 0.009
308.15 K, x1 = 0.7999	702.18 ± 0.32	0.497 ± 0.009
308.15 K, x1 = 0.8991	695.72 ± 0.28	0.473 ± 0.009
308.15 K, x1 = 1	690.37 ± 0.16	0.459 ± 0.009
313.15 K, x1 = 0.0967	776.24 ± 0.7	1.4 ± 0.018
313.15 K, x1 = 0.1999	759.83 ± 0.61	1.11 ± 0.014
313.15 K, x1 = 0.3022	745.56 ± 0.54	0.904 ± 0.012
313.15 K, x1 = 0.4064	732.96 ± 0.48	0.74 ± 0.011
313.15 K, x1 = 0.4995	723.07 ± 0.42	0.644 ± 0.01
313.15 K, x1 = 0.6004	713.59 ± 0.38	0.566 ± 0.009
313.15 K, x1 = 0.7002	705.27 ± 0.35	0.511 ± 0.009
313.15 K, x1 = 0.7999	697.97 ± 0.32	0.467 ± 0.009
313.15 K, x1 = 0.8991	691.54 ± 0.28	0.447 ± 0.009
313.15 K, x1 = 1	686.29 ± 0.16	0.433 ± 0.009
318.15 K, x1 = 0.0967	772.22 ± 0.7	1.258 ± 0.016
318.15 K, x1 = 0.1999	755.73 ± 0.62	1 ± 0.013
318.15 K, x1 = 0.3022	741.39 ± 0.54	0.821 ± 0.011
318.15 K, x1 = 0.4064	728.75 ± 0.48	0.679 ± 0.01
318.15 K, x1 = 0.4995	718.84 ± 0.43	0.595 ± 0.009
318.15 K, x1 = 0.6004	709.35 ± 0.39	0.527 ± 0.009
318.15 K, x1 = 0.7002	701.03 ± 0.35	0.479 ± 0.009
318.15 K, x1 = 0.7999	693.72 ± 0.32	0.44 ± 0.009
318.15 K, x1 = 0.8991	687.33 ± 0.28	0.42 ± 0.009
318.15 K, x1 = 1	682.19 ± 0.16	0.412 ± 0.008
323.15 K, x1 = 0.0967	768.16 ± 0.7	1.134 ± 0.014
323.15 K, x1 = 0.1999	751.58 ± 0.62	0.907 ± 0.012
323.15 K, x1 = 0.3022	737.18 ± 0.54	0.751 ± 0.011
323.15 K, x1 = 0.4064	724.5 ± 0.48	0.625 ± 0.01
323.15 K, x1 = 0.4995	714.57 ± 0.43	0.552 ± 0.009
323.15 K, x1 = 0.6004	705.07 ± 0.39	0.493 ± 0.009
323.15 K, x1 = 0.7002	696.75 ± 0.35	0.45 ± 0.009
323.15 K, x1 = 0.7999	689.48 ± 0.32	0.415 ± 0.009
323.15 K, x1 = 0.8991	683.1 ± 0.28	0.397 ± 0.008
323.15 K, x1 = 1	678.08 ± 0.16	0.392 ± 0.008
